Assay results from patent US12358875B2, “N-(phenyl)-indole-3-sulfonamide derivatives and related compounds as GPR17 modulators for treating CNS disorders such as multiple sclerosis” (UCB Pharma GMBH, priority 2019, dated 2025).

molecular target: T1, GPR17 (Homo sapiens, UniProt Q13304); assay: Calcium mobilization functional assay (Ca2+ assay), inhibition of MDL29,951 response in CHO hGPR17; assay type: cell-based; set-up: host or cells: Flp-In T-REx CHO; settings: CHO hGPR17, 50 nM MDL29,951 agonist; read-out: Ca^2+ assay pIC50 (converted)
Experimental: (§1) Flp-In T-REx CHO cells stably expressing human GPR17 receptor (CHO hGPR17) from Evi Kostenis' lab (Bonn University, Germany) were cultured at 37° C. in a humidified atmosphere of 5% CO2. Cells were grown in DMEM with Nutrient Mixture F-12 supplemented with hygromycin B (500 μg/ml) and blasticidin (30 μg/ml). Expression from the Flp-In locus was induced by treatment with doxycycline (1 μg/ml) for 16-20 h prior assays.
GPR17 is a G-protein coupled receptor. GPR17 activation triggers Gq-type G-protein signaling resulting in endoplasmic reticulum calcium (Ca^2+) stores release in cytosol which can be measured using Calcium 5 dye, a fluorescent indicator dye of cytosolic Ca^2+ levels. The compounds of the present invention were assessed either in the Ca^2+ assay or in the GPR17 cAMP assay, described further below.
CHO hGPR17 were defrosted and seeded at a density of 20,000 cells per well into black 384-well plates with clear bottom. Cells were incubated overnight at 37° C. in a humidified atmosphere of 5% CO2. […] Fluorescent signal relative to cytosolic Ca^2+ concentration was recorded over time at room temperature in FLIPR Tetra reader. […] Inhibitory effects of varying concentrations test compounds were measured and resulting pIC50s were determined. […]
Target sequence in this assay (Q13304 29-367 limits assumed): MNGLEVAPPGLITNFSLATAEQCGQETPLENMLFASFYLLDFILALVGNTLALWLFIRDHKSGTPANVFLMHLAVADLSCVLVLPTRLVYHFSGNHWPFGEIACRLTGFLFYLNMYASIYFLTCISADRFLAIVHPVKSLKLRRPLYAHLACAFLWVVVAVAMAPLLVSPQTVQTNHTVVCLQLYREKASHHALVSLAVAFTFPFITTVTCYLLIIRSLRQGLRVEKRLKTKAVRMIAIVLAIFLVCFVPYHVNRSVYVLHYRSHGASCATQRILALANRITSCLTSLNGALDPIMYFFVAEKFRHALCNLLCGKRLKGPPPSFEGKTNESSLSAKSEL

IC50 [nM] | Structure (SMILES)
31.6 to 316 | Cn1cc(S(=O)(=O)Nc2ccc(C#N)cc2F)c2ccc(Cl)cc21 [Example I-1, 6-chloro-N-(4-cyano-2-fluorophenyl)-1-methylindole-3-sulfonamide]
31.6 to 316 | COc1nc(NS(=O)(=O)c2cn(C)c3cc(Cl)ccc23)c(F)cc1Cl [Example I-2, 6-chloro-N-(5-chloro-3-fluoro-6-methoxypyridin-2-yl)-1-methylindole-3-sulfonamide]

molecular target: T1, GPR17; assay: cAMP accumulation functional assay (HTRF), Schild analysis against MDL29,951 in CHO hGPR17; assay type: cell-based; set-up: host or cells: Flp-In T-REx CHO; settings: CHO hGPR17, Schild analysis vs MDL29,951, 5 μM forskolin; read-out: cAMP assay pA2 (converted)
Experimental: as §1
GPR17 activation can also recruit Gi-type G-protein signaling, resulting in a decrease of intracellular cyclic adenosine monophosphate (cAMP). Intracellular cAMP changes can be measured using the HTRF cAMP dynamic assay kit from CisBio (Codolet, France). Using homogenous time-resolved fluorescence technology (HTRF), the assay is based on competition between native cAMP produced by cells and cAMP labelled with the dye d2. The tracer binding was determined by an anti-cAMP antibody labeled with cryptate.
CHO hGPR17 were detached with PBS containing EDTA and dispatched in black 384-well plates with 5,000 cells per well. Cells were first incubated for 30 minutes at room temperature in HBSS Hepes (pH 7.4) containing vehicle or varying concentrations of test GPR17 antagonist/inverse agonist compounds. Then, a dose response curve of MDL29,951 GPR17 agonist (typically from 10^−5M to 10^−10M) was added on vehicle and on each test GPR17 antagonist/inverse agonist compound concentration in a final volume of 20 μL HBSS Hepes buffer (pH 7.4) containing 1% DMSO, 5 μM forskolin and 0.1 mM IBMX. After 60 minutes incubation at room temperature, the reaction is terminated and the cells lysed by adding the d2 detection reagent and the cryptate reagent in 10 μL lysis buffer each according to manufacturer's instructions. After 60 minutes incubation, changes in cAMP concentrations are measured according to manufacturer's instructions using an Envision plate reader with laser excitation. All incubations were performed in duplicate. Data was analyzed using GraphPad Prism software using the 4-parameter logistic equation to measure MDL29,951 pEC50s in absence and presence of GPR17 antagonist/inverse agonist test compounds. Dose ratio (DR) were plotted against antagonist concentrations and Schild analysis provided estimated affinity pA2 of GPR17 antagonist/inverse agonist test compounds.
The activities of the Example compounds tested are depicted in the table below. The activity ranges A, B and C refer to pA2 values in the cAMP assay as follows: “A”: pA2 6.5≤x<7.5, “B”: pA2 7.5≤x<8.5, “C”: 8.5≤pA2.
Target sequence in this assay (Q13304 29-367 limits assumed): as above

Kb [nM] | Structure (SMILES)
3.16 to 31.6 | O=S(=O)(Nc1cc(F)c(Br)cc1F)c1cn(CC(O)CF)c2cc(Cl)ccc12 (stereo not shown) [Example I-19, N-(4-bromo-2,5-difluorophenyl)-6-chloro-1-(3-fluoro-2-hydroxypropyl)indole-3-sulfonamide]
3.16 to 31.6 | O=S(=O)(Nc1cc(F)c(Br)cc1F)c1cn(CC(O)C(F)(F)F)c2cc(Cl)ccc12 (stereo not shown) [Example I-20, N-(4-bromo-2,5-difluorophenyl)-6-chloro-1-(3,3,3-trifluoro-2-hydroxypropyl)indole-3-sulfonamide]
3.16 to 31.6 | O=S(=O)(Nc1cc(F)c(OC(F)F)cc1F)c1cn(CCO)c2cc(Cl)ccc12 [Example I-21, 6-chloro-N-[4-(difluoromethoxy)-2,5-difluorophenyl]-1-(2-hydroxyethyl)indole-3-sulfonamide]
3.16 to 31.6 | Cn1cc(S(=O)(=O)Nc2cc(F)c(OC(F)F)cc2F)c2ccc(Cl)cc21 [Example I-22, 6-chloro-N-[4-(difluoromethoxy)-2,5-difluorophenyl]-1-methylindole-3-sulfonamide]
31.6 to 316 | CCn1cc(S(=O)(=O)Nc2cc(F)c(OC(F)F)cc2F)c2ccc(Cl)cc21 [Example I-23, 6-chloro-N-[4-(difluoromethoxy)-2,5-difluorophenyl]-1-ethylindole-3-sulfonamide]
3.16 to 31.6 | O=S(=O)(Nc1cc(F)c(OC(F)F)cc1F)c1cn(CCF)c2cc(Cl)ccc12 [Example I-24, 6-chloro-N-[4-(difluoromethoxy)-2,5-difluorophenyl]-1-(2-fluoroethyl)indole-3-sulfonamide]
31.6 to 316 | CCCn1cc(S(=O)(=O)Nc2cc(F)c(OC(F)F)cc2F)c2ccc(Cl)cc21 [Example I-25, 6-chloro-N-[4-(difluoromethoxy)-2,5-difluorophenyl]-1-propylindole-3-sulfonamide]
31.6 to 316 | COCCn1cc(S(=O)(=O)Nc2cc(F)c(OC(F)F)cc2F)c2ccc(Cl)cc21 [Example I-26, 6-chloro-N-[4-(difluoromethoxy)-2,5-difluorophenyl]-1-(2-methoxyethyl)indole-3-sulfonamide]
≤ 3.16 | O=S(=O)(Nc1cc(F)c(OC(F)F)cc1F)c1cn(CC(O)CO)c2cc(Cl)ccc12 (stereo not shown) [Example I-27, 6-chloro-N-[4-(difluoromethoxy)-2,5-difluorophenyl]-1-(2,3-dihydroxypropyl)indole-3-sulfonamide]
3.16 to 31.6 | O=S(=O)(Nc1cc(F)c(Br)cc1F)c1cn(CC(O)CO)c2cc(Cl)ccc12 (stereo not shown) [Example I-28, N-(4-bromo-2,5-difluorophenyl)-6-chloro-1-(2,3-dihydroxypropyl)indole-3-sulfonamide]
3.16 to 31.6 | O=S(=O)(Nc1cc(F)c(Br)cc1F)c1cn(CC(O)CO)c2nc(Cl)ccc12 (stereo not shown) [Example I-29, N-(4-bromo-2,5-difluorophenyl)-6-chloro-1-(2,3-dihydroxypropyl)pyrrolo[2,3-b]pyridine-3-sulfonamide]
3.16 to 31.6 | O=S(=O)(Nc1cc(F)c(Br)cc1F)c1cn(CCO)c2nc(Cl)ccc12 [Example I-30, N-(4-bromo-2,5-difluorophenyl)-6-chloro-1-(2-hydroxyethyl)pyrrolo[2,3-b]pyridine-3-sulfonamide]
3.16 to 31.6 | COc1nc(Cl)c(F)cc1NS(=O)(=O)c1cn(C)c2cc(Cl)ccc12 [Example I-31, 6-chloro-N-(6-chloro-5-fluoro-2-methoxypyridin-3-yl)-1-methylindole-3-sulfonamide]
3.16 to 31.6 | COc1nc(Cl)c(F)cc1NS(=O)(=O)c1cn(CC(F)F)c2cc(Cl)ccc12 [Example I-32, 6-chloro-N-(6-chloro-5-fluoro-2-methoxypyridin-3-yl)-1-(2,2-difluoroethyl)indole-3-sulfonamide]
≤ 3.16 | COc1nc(Cl)c(F)cc1NS(=O)(=O)c1cn(CC(O)CF)c2cc(Cl)ccc12 (stereo not shown) [Example I-33, 6-chloro-N-(6-chloro-5-fluoro-2-methoxypyridin-3-yl)-1-(3-fluoro-2-hydroxypropyl)indole-3-sulfonamide]
3.16 to 31.6 | COc1nc(Cl)c(F)cc1NS(=O)(=O)c1cn(CC(O)CO)c2cc(Cl)ccc12 (stereo not shown) [Example I-34, 6-chloro-N-(6-chloro-5-fluoro-2-methoxypyridin-3-yl)-1-(2,3-dihydroxypropyl)indole-3-sulfonamide]
≤ 3.16 | COc1nc(OC(F)F)c(F)cc1NS(=O)(=O)c1cn(CCO)c2nc(Cl)ccc12 [Example I-35, 6-chloro-N-[6-(difluoromethoxy)-5-fluoro-2-methoxypyridin-3-yl]-1-(2-hydroxyethyl)pyrrolo[2,3-b]pyridine-3-sulfonamide]
31.6 to 316 | [N-]=[N+]=NCCn1cc(S(=O)(=O)Nc2cc(F)c(Br)cc2F)c2ccc(Cl)cc21 [Example I-36, 1-(2-azidoethyl)-N-(4-bromo-2,5-difluorophenyl)-6-chloroindole-3-sulfonamide]

molecular target: T1, GPR17; assay: not given; settings: WO 2005/103291; cited from earlier work
Target sequence in this assay (Q13304 whole entry, species assumed): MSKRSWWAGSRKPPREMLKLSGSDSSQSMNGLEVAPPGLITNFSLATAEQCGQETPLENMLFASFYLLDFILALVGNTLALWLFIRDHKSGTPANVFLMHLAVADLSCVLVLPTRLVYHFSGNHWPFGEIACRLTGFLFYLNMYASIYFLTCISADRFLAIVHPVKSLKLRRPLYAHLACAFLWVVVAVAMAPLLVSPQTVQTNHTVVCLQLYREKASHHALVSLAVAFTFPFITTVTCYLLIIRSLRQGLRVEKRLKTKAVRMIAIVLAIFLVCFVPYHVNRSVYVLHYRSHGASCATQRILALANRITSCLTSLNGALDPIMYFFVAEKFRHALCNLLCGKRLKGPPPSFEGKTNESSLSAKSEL

Structure (SMILES) | amounts needed in the assays (GPR17 activation)
NCC(=O)CCC(=O)O [Example 5-ALA, 5 amino levulinic acid] | three digit micromolar range
NCc1[nH]cc(CCC(=O)O)c1CC(=O)O [PBG, porphobilinogen] | mM range
